These results are taken from patent publication US6608080B1, “Morphan derivatives or salts thereof and medicinal compositions containing the same” (Hisamitsu Pharmaceutical Co., Ltd., priority 1999, dated 2003).

One data set relates to glycine receptors. The data set can be described thus: ionic current induced by glycine in a single neuron of the tractus solitarius nucleus, whole cell patch clamp. Type of data set: cell-based, guinea pig. On the set-up: key to Action (class symbol): ±: no action; +: potentiated; −: inhibited. To be noted: for type of effect on glycine-induced ionic currents (in words): classification, 1 mM, example 7 at 300 μM; for Action (% of control): mean ± S.E. The method, then: In order to confirm the excellent actions of the derivatives described in the present invention on modification of glycine receptors, the actions of various morphan derivatives against ionic current induced by glycine were evaluated in a single neuron of the tractus solitarius nucleus of a guinea pig.
The isolation of a single neuron was performed according to the method described in Kay et al. (J. Neurosci. Meth., 16, 227-238, 1986). Guinea pigs, Hartley strain, 7-10 days of age, were anesthetized, bled and decapitated and the medullae were rapidly extracted. Sliced sections, thickness 400 μm, were prepared by using a microslicer. The sliced segments obtained were incubated at 37° C. for 30 minutes, and regions of the tractus solitarius nucleus were punched out under a stereoscope. The punched out specimens were trypsinized in a 100% oxygen atmosphere at 37° C. for 30-60 minutes. The trypsinized tissues were dispersed mechanically to obtain the single neurons. Measurements of the ionic currents activated by glycine were performed using the whole cell mode of the patch clamp method. The ionic currents obtained were recorded using a pen-recorder. Administration of the test compounds was performed by the Y-tube method in which the external fluid peripheral to the cells could be changed to the test drug solution within 2 msec. (Neurosci. Lett., 103, 56-63, 1989). Concentrations of the test compounds were 1 mM, except that the highly lipophilic compound of example 7 was examined at 300 μM. All data were expressed by mean±S.E.
In Table 1, the effects of the morphan derivatives on ionic currents in single neurons from the tractus solitarius nucleus, induced by glycine at 30 μM are summarized.

A further data set deals with GABA-induced currents. The data set can be described thus: GABA-induced currents in a single neuron, whole cell patch clamp. Type of data set: cell-based, guinea pig. To be noted: test compound 1 mM; GABA 30 μM (FIG. 1).
[1] abbreviates: glycine 30 μM, test compound 1 mM.
The mark [2] stands for this setting: glycine 30 μM, test compound 300 μM.

Where a name gives a salt, the structure may show the parent alone.

On to `CN1CCC2CCCC1C2` (stereo not drawn) (as salt: hydrochloric acid salt) [Example 1, 2-Methyl-2-azabicyclo[3.3.1]nonane], for which the melting point was in the range of 147 to 152 °C.
Consider `CN1CCC2CCCC1C2` (stereo not drawn) [Example 1, 2-Methyl-2-azabicyclo[3.3.1]nonane], for which the “type of effect on glycine-induced ionic currents (in words)” value (shortened to “type of effect”) in the data set with glycine receptors is “weak action”. In the data set on glycine receptors (setting [1]), the “Action (class symbol)” value was “±” and the “Action (% of control)” value amounted to 99.7 ± 1.5%.
Turning to `CCN1CCC2CCCC1C2` (stereo not drawn) [Example 2, 2-Ethyl-2-azabicyclo[3.3.1]nonane], in the data set with glycine receptors, the “type of effect” value was “potentiation action”. The “rank of action on glycine-induced current” value in the data set with glycine receptors (glycine 30 μM) was “strongest enhancing action”. For the same compound, in the data set on glycine receptors (setting [1]), the “Action (class symbol)” value is recorded as “+” and the “Action (% of control)” value is reported as 150.6 ± 14.2%. Besides, in the data set on GABA-induced currents, the “action against GABA-induced currents” value is listed as “no action”.
Turning to `C=CCN1CCC2CCCC1C2` (stereo not drawn) [Example 3, 2-Allyl-2-azabicyclo[3.3.1]nonane], in the data set with glycine receptors, the “type of effect” value is given as “potentiation action”. In the data set with glycine receptors (setting [1]), the “Action (class symbol)” value was “+” and the “Action (% of control)” value stood at 138.9 ± 5.6%.
For the compound `CCC12CCCC(CCN1)C2` (stereo not drawn) [Example 4, 1-Ethyl-2-azabicyclo[3.3.1]nonane], the “type of effect” value in the data set on glycine receptors was “inhibitory action”. For the same compound, in the data set on glycine receptors (setting [1]), the “Action (class symbol)” value was “−” and the “Action (% of control)” value amounted to 70.9 ± 2.7%.
Consider `CCCC12CCCC(CCN1)C2` (stereo not drawn) [Example 5, 1-Propyl-2-azabicyclo[3.3.1]nonane], for which the “type of effect” value in the data set with glycine receptors is on record as “potentiation action”. Besides, in the data set on glycine receptors (setting [1]), the “Action (class symbol)” value was “+” and the “Action (% of control)” value stood at 138.1 ± 7.0%.
For `C1CC2CCN3CCCC3(C1)C2` (stereo not drawn) [Example 6, 5-Azatricyclo[6.3.1.0^1,5]dodecane], the “type of effect” value in the data set on glycine receptors is “potentiation action”. Moreover, in the data set on glycine receptors (setting [1]), the “Action (class symbol)” value is on record as “+” and the “Action (% of control)” value is 152.1 ± 16.6%.
With `C=CCC12CCCC(CCN1Cc1ccccc1O)C2` (stereo not drawn) [Example 7, 2-{[1-Allyl-(2-propenyl)-2-azabicyclo[3.3.1]nonane-2-yl]methyl}phenol], the “concentration range of concentration-dependent inhibition of glycine-induced currents” value in the data set on glycine receptors (FIG. 2, glycine 30 μM) was 10 to 300 µM. Further, in the data set with glycine receptors (setting [2]), the “Action (class symbol)” value was “−” and the “Action (% of control)” value was 60.5 ± 2.7%.
